# Test results reported in patent publication US20240025849A1 (MAX DELBRÜCK-CENTRUM FÜR MOLEKULARE MEDIZIN IN DER …, priority 2020, published 2024).
# pIC50: −log10 of the molar value. Like-named read-outs stand apart in the source and are kept apart here.
# Tested on: primary cultured neonatal microglia
# Experiment: LPS induced NO release, Griess assay, laboratory scaled setup;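 for active: compounds at or above the IC50 cutoff were called inactive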
# Assay type: cell-based, mouse
# Details: inhibitors of NO production, murine primary cultured neonatal microglia; for pIC50: Mus musculus, Microglia
# Protocol: Primary cultured neonatal microglia. For preparation of cultured neonatal microglia, P0-P3 mice were used. 10 brains were extracted, meninges and cerebellum were removed and put on ice with Hank's balanced salt solution (HBSS). The dissected brains were washed 3 times before adding 400 μL trypsin (0.1 mg/L) and DNAse (5 μg/L) in phosphate buffered saline (PBS). After 2 min of incubation with this solution, the reaction was blocked by adding plain medium. After removal of the medium, 1 mg DNAse was added and the cells were mechanically dissociated, with a Pasteur pipette followed by a glass pipette. The cells were centrifuged for 10 min at 129 g at 4° C. The supernatant was discarded. The pellet was resuspended in plain medium and plated (2.5 brains/flask) in Poly-L-Lysine coated flasks. The cells were washed after 2 days with PBS and incubated for another 7 days in plain medium. Afterwards the medium was replaced by plain medium with 33% L929 conditioned medium. After 2 days, cells were harvested by shaking them for 30 min at 150 rpm. The supernatant was centrifuged for 10 min at 129 g at 4° C. The cells were plated into a 96 well plate (100 000 cells/well, 200 μL medium per well). This procedure could be repeated 2 times with a 2 day interval.
# Griess assay. Cells were seeded according to the protocols described above, after compounds and stimuli were added, 100 μl of supernatant was transferred into a new 96 well plate and 100 μl freshly mixed Griess reagent were added. Griess reagent was composed of reagent A (100 mg Naphthylethylene in 50 ml aqua dest.) and reagent B (1 g Sulfanilamide, […] H3PO4 (85%) in 44 mL aqua dest.) mixed 1:1. The solution was carefully mixed and the absorbance was determined in a microplate reader at a wavelength of 550 nm.
# Dissolved sodium nitrite in plain medium served as a standard. Total amount of nitrite was calculated by a linear regression of the standard curve.
# The activity of the compounds listed in column 1 of Table 1 as inhibitors of NO production was compared in murine primary cultured neonatal microglia as described above.
# [1] = read-out: activity class (IC50)
SMILES,pIC50 (read-out: IC50),pIC50 [1],active,pIC50 (read-out: active)
"COc1ccc([C@H](NC(=O)[C@@H]2CCCN2C(=O)OCc2ccccc2)C(=O)Nc2cnc(C3CC3)nc2)cc1 [Compound 27, benzyl(S)-2-(((S)-2-((2-cyclopropylpyrimidin-5-yl)amino)-1-(4-methoxyphenyl)-2-oxoethyl)carbamoyl)pyrrolidine-1-carboxylate]",5.72,> 5.00,YES,–
"COc1ccc(NC(=O)[C@@H](NC(=O)[C@@H]2CCCN2C(=O)Cc2ccccc2)c2ccc(OC)cc2)cc1 [Compound 12, (S)—N—((S)-1-(4-methoxyphenyl)-2-((4-methoxyphenyl)amino)-2-oxoethyl)-1-(2-phenylacetyl)pyrrolidine-2-carboxamide]",7.00,> 7.00,YES,–
"COc1ccc(NC(=O)[C@@H](NC(=O)[C@@H]2CCCN2CCCc2ccccc2)c2ccc(OC)cc2)cc1 [Compound 39, (S)—N—((S)-1-(4-methoxyphenyl)-2-((4-methoxyphenyl)amino)-2-oxoethyl)-1-(3-phenylpropyl)pyrrolidine-2-carboxamide]",–,–,–,≤ 5.00
"COc1ccc(NC(=O)[C@@H](NC(=O)[C@@H]2CCCN2C(=O)CCC2CCCCC2)c2ccc(OC)cc2)cc1 [Compound 6, (S)-1-(3-cyclohexylpropanoyl)-N—((S)-1-(4-methoxyphenyl)-2-((4-methoxyphenyl)amino)-2-oxoethyl)pyrrolidine-2-carboxamide]",7.69,> 7.30,YES,–
"COc1ccc(NC(=O)[C@@H](NC(=O)[C@@H]2CCCN2C(=O)CCC2CCCCC2)c2ccc(OCCOCCOCCOCCOCCOCCNC(=O)CCCC[C@@H]3SC[C@@H]4NC(=O)N[C@@H]43)cc2)cc1 [Compound 8, (S)-1-(3-cyclohexylpropanoyl)-N—((S)-2-((4-methoxyphenyl)amino)-2-oxo-1-(4-((19-oxo-23-((3aS,4S,6aR)-2-oxohexahydro-1H-thieno[3,4-d]imidazol-4-yl)-3,6,9,12,15-pentaoxa-18-azatricosyl)oxy)phenyl)ethyl)pyrrolidine-2-carboxamide]",8.08,> 7.30,YES,–
"COc1ccc(NC(=O)[C@@H](NC(=O)[C@@H]2CCCN2C(=O)CC2CCCCC2)c2ccc(OC)cc2)cc1 [Compound 19, (S)-1-(2-cyclohexylacetyl)-N—((S)-1-(4-methoxyphenyl)-2-((4-methoxyphenyl)amino)-2-oxoethyl)pyrrolidine-2-carboxamide]",6.68,> 6.00,YES,–
COc1ccc(NC(=O)[C@@H](NC(=O)[C@@H]2CCCN2C(C)=O)c2ccc(OC)cc2)cc1 [Compound 47],–,–,–,≤ 5.00
"COc1ccc(NC(=O)[C@@H](NC(=O)[C@@H]2CCCN2C(=O)CCC2CCCC2)c2ccc(OC)cc2)cc1 [Compound 5, (S)-1-(3-cyclopentylpropanoyl)-N—((S)-1-(4-methoxyphenyl)-2-((4-methoxyphenyl)amino)-2-oxoethyl)pyrrolidine-2-carboxamide]",7.78,> 7.30,YES,–
"COc1ccc([C@H](NC(=O)[C@@H]2CCCN2C(=O)OCc2ccccc2)C(=O)Nc2cnc(C)s2)cc1 [Compound 26, benzyl (S)-2-(((S)-1-(4-methoxyphenyl)-2-((2-methylthiazol-5-yl)amino)-2-oxoethyl)carbamoyl)pyrrolidine-1-carboxylate]",5.60,> 5.00,YES,–
"COc1ccc([C@H](NC(=O)[C@@H]2CCCN2C(=O)OCc2ccccc2)C(=O)Nc2cc3n(n2)CCCC3)cc1 [Compound 10, benzyl(S)-2-(((S)-1-(4-methoxyphenyl)-2-oxo-2-((4,5,6,7-tetrahydropyrazolo[1,5-a]pyridin-2-yl)amino)ethyl)carbamoyl)pyrrolidine-1-carboxylate]",7.18,> 7.00,YES,–
